Marks after values point to notes of the source that are not given here.
Columns and labels:
[1] = molecular target: T1, recombinant human GALNS (rhGALNS VIMIZIM®) (Homo sapiens, UniProt P34059); experiment: IC50 on recombinant human GALNS (rhGALNS VIMIZIM); format: biochemical
T1 construct: purchased BioMarin (VIMIZIM, elosulfase alfa)
T1 sequence (P34059 27-522): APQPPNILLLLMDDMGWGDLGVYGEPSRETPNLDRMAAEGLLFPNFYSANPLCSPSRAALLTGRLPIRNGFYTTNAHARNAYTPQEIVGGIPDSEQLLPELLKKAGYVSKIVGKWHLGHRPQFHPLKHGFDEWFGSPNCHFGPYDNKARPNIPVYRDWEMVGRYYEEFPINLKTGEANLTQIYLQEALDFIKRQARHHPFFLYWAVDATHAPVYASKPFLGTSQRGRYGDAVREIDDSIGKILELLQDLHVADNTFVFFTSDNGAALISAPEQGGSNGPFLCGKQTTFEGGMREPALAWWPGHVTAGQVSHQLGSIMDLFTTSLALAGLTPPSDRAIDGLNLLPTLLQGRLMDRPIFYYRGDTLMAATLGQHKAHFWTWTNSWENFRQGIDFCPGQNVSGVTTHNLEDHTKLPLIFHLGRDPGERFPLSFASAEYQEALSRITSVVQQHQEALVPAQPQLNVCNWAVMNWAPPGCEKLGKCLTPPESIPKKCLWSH
Protocol: The promising IC50 values observed for 1 and 36 prompted us to assess their effects on the commercially available wild-type recombinant GALNS (rhGALNS VIMIZIM®). […] Building on these findings, we investigated the potential stabilizing effect of these compounds on the tertiary structure of GALNS through a thermal denaturation study. rhGALNS was preincubated with varying concentrations of the compounds before being subjected to heating at 48 °C for 40 and 60 min. The relative enzyme activity was expressed as the ratio between the activity measured after thermal denaturation at 48 °C and that obtained under physiological conditions at 37 °C.
The IC 50 values of inhibitors against human GALNS in leukocytes isolated from healthy donors or against recombinant human GALNS (rhGALNS VIMIZIM®) were determined by measuring the initial hydrolysis rate with 4 -methylumbelliferyl-β-galactoside-6-sulfate.Na (6.66 mM) at different concentrations of inhibitors.
Data obtained were fitted to the following equation using the OriginPro 2021 (Version 2021. OriginLab Corporation, Northampton, MA, USA): where Vi/Vo, represent the ratio between the activity measured in the presence of the inhibitor (Vi) and the activity of the control without the inhibitor (Vo), “x” the inhibitor concentration, Max and Min, the maximal and minimal enzymatic activity observed, respectively. […]

[2] = molecular target: T2, N-acetylgalactosamine-6-sulfatase (GALNS) (Homo sapiens, UniProt P34059); experiment: GALNS inhibition in leukocyte homogenate from healthy donors (4-methylumbelliferyl-β-galactoside-6-sulfate substrate, fluorescence); format: biochemical
T2 construct: Isolated leukocytes were disrupted by sonication; from tissue; host or cells: human leukocytes from healthy donors (sonicated homogenate)
T2 sequence (P34059 27-522): T1 sequence (P34059 27-522)
Protocol: A preliminary biological screening of the newly synthesized multivalent compounds at 1 mM inhibitor concentration was performed against GALNS in leukocytes isolated from healthy donors. Enzymatic assays were performed in triplicate by incubating leukocyte homogenate, compound, and substrate (4-methylumbelliferyl-β-galactoside-6-sulfate.Na) in Na-acetate/acetic acid buffer (pH 4.3) at 37 °C for 17 h, followed by the addition of β-galactosidase from Aspergillus oryzae and further incubation to release 4-methylumbelliferone. The fluorescence was measured, and the inhibition percentages were calculated relative to the control. The results are summarized in Table 1, Table 2, Table 3 and Table 4, along with new inhibition data toward GALNS of multivalent inhibitors whose synthesis was reported previously by our group (23, 26, 30, 51, 52–54). For compounds showing poor to negligible inhibitory activity, only the GALNS inhibition percentage at 1 mM was reported.
Enzymatic assays towards human GALNS in leukocytes isolated from healthy donors.
All experiments on biological materials were performed in accordance with the ethical standards of the institutional research committee and with the 1964 Helsinki Declaration and its later amendments. In keeping with ethical guidelines, all blood and cell samples were obtained for storage and analysed only after written informed consent of the patients (and/or their family members) was obtained, using a form approved by the local Ethics Committee (Assigned code: Lysolate “Late -onset Lysosomal Storage Disorders (LSDs) in the differential diagnosis of neurodegenerative diseases: development of new diagnostic procedures and focus on potential pharmacological chaperones (PCs).” Project ID code: 16774_bio, 5 May 2020, Comitato Etico Regionale per la Sperimentazione Clinica della Regione Toscana, Area Vasta Centro, Florence, Italy). Control and patient samples were anonymized and used only for research purposes.
A preliminary biological screening of compounds at 1 mM was performed towards GALNS in leukocytes isolated from healthy donors (controls). Isolated leukocytes were disrupted by sonication, and a micro BCA protein assay kit (Sigma–Aldrich) was used to determine the total protein amount for the enzymatic assay, according to the manufacturer instructions. Enzyme activity was measured by setting the reaction in 0.2 mL tubes and performing the experiments in triplicates as follows. Compound solution (3 µL), 4.29 μg/μL leukocyte homogenate 1:5 (7 μL) and 20 µL of 4-methylumbelliferyl-β-galactoside-6-sulfate.Na substrate solution (6.66mM) in Na-Acetate/acetic acid buffer (0.1 M/0.1 M, pH 4.3) containing 0.1 M NaCl, 0.02% (w/v) NaN3 and 5 mM Pb-acetate were incubated for 17 h at 37 °C. After step one, the tubes were placed on an ice cooler and the reaction was stopped by addition of 5 µL of Na-phosphate buffer (0.9 M, pH 4.3) containing 0.02 % (w/v) of NaN3 and by efficient mixing with vortex. Then, 10 µL of β-galactosidase from Aspergillus oryzae (β-Gal-A-10U) were added to each sample and samples were incubated for 2 h at 37°C. At the end of this period the tubes were placed on an ice cooler and the samples were transferred in a cooled flat –bottomed 96 well plate and the reaction was immediately stopped with 2 00 µL of NaHCO3/Na2CO3 buffer (0.5 M/0.5 M pH 10.7) containing 0.025% (w/v) of Triton X -100. Fluorescence was measured in a SpectraMax M2 microplate reader (Molecular-Devices) using a 365 nm excitation wavelength and a 435 nm emission wavelength. Percentage of GALNS inhibition was given with respect to the control (without compound).
Experiments were performed in triplicate, and the mean ± S. D. was calculated.
Figure S52. GALNS activity in the absence Figure S53. GALNS activity in the absence (Ctrl) and presence of scaffold 12 at a 1 mM (Ctrl) and presence of the new multivalent […]
The corresponding calculated inhibition of the main text) at a 1 mM concentration in […]

[3] = calculated considering 34 as the monovalent reference compound

| Compound | IC50 [1] [µM] | rp (relative potency) [2, 3] | rp (relative potency) ([2]; calculated with respect to the scaffold 38) | IC50 ([2]; human leukocyte extracts) [µM] |
| --- | --- | --- | --- | --- |
| O=C(NC(COCc1cn(CCCCCCN2CC(O)C(O)C2CO)nn1)(COCc1cn(CCCCCCN2CC(O)C(O)C2CO)nn1)COCc1cn(CCCCCCN2CC(O)C(O)C2CO)nn1)c1cc(C(=O)NC(COCc2cn(CCCCCCN3CC(O)C(O)C3CO)nn2)(COCc2cn(CCCCCCN3CC(O)C(O)C3CO)nn2)COCc2cn(CCCCCCN3CC(O)C(O)C3CO)nn2)cc(C(=O)NC(COCc2cn(CCCCCCN3CC(O)C(O)C3CO)nn2)(COCc2cn(CCCCCCN3CC(O)C(O)C3CO)nn2)COCc2cn(CCCCCCN3CC(O)C(O)C3CO)nn2)c1 (stereo not drawn) [Compound 1] | 110 | 83 | 1.5 | – |
| OCC1C(O)C(O)CN1CCCCCCn1cc(COCC(COCc2cn(CCCCCCN3CC(O)C(O)C3CO)nn2)(COCc2cn(CCCCCCN3CC(O)C(O)C3CO)nn2)NCc2cc(CNC(COCc3cn(CCCCCCN4CC(O)C(O)C4CO)nn3)(COCc3cn(CCCCCCN4CC(O)C(O)C4CO)nn3)COCc3cn(CCCCCCN4CC(O)C(O)C4CO)nn3)cc(CNC(COCc3cn(CCCCCCN4CC(O)C(O)C4CO)nn3)(COCc3cn(CCCCCCN4CC(O)C(O)C4CO)nn3)COCc3cn(CCCCCCN4CC(O)C(O)C4CO)nn3)c2)nn1 (stereo not drawn) [Compound 36] | 30 | 139 ^[b] | – | 28 ± 5 |

— paper PMC12113998, “Exploring Multivalent Architectures for Binding and Stabilization of N-Acetylgalactosamine 6-Sulfatase” (Molecules, 2025)
